# Reference: US20220363686A1 (AiCuris GmbH & Co. KG, priority 2018, published 2022)
# Legend:
# [1] = tested on: HBV; experiment: Determination of HBV DNA from the supernatants of HepAD38 cells (anti-HBV activity); type: cell-based, hepatitis B virus; details: Hepatitis B virus, HePAD38, 144 h, HBV DNA in HepAD38 supernatant, day 6, qPCR; read-out: Cell Activity
# Protocol: The anti-HBV activity was analysed in the stable transfected cell line HepAD38, which has been described to secrete high levels of HBV virion particles (Ladner et al., 1997). In brief, HepAD38 cells were cultured at 37° C. at 5% CO2 and 95% humidity in 200 μl maintenance medium, which was Dulbecco's modified Eagle's medium/Nutrient Mixture F-12 (Gibco, Karlsruhe), 10% fetal bovine serum (PAN Biotech Aidenbach) supplemented with 50 μg/ml penicillin/streptomycin (Gibco, Karlsruhe), 2 mM L-glutamine (PAN Biotech, Aidenbach), 400 μg/ml G418 (AppliChem, Darmstadt) and 0.3 μg/ml tetracycline. Cells were subcultured once a week in a 1:5 ratio, but were usually not passaged more than ten times. For the assay 60,000 cells were seeded in maintenance medium without any tetracycline into each well of a 96-well plate and treated with serial half-log dilutions of test compound. To minimize edge effects the outer 36 wells of the plate were not used but were filled with assay medium. On each assay plate six wells for the virus control (untreated HepAD38 cells) and six wells for the cell control (HepAD38 cells treated with 0.3 μg/ml tetracycline) were allocated, respectively. In addition, one plate set with reference inhibitors like BAY 41-4109, entecavir, and lamivudine instead of screening compounds were prepared in each experiment. In general, experiments were performed thrice in triplicates. At day 6 HBV DNA from 100 μl filtrated cell culture supernatant (AcroPrep Advance 96 Filter Plate, […] Supor membran, PALL GmbH, Dreieich) was automatically purified on the MagNa Pure LC instrument using the MagNA Pure 96 DNA and Viral NA Small Volume Kit (Roche Diagnostics, Mannheim) according to the instructions of the manufacturer. EC50 values were calculated from relative copy numbers of HBV DNA In brief, 5 μl of the 100 μl eluate containing HBV DNA were subjected to PCR LC480 Probes Master Kit (Roche) together with 1 μM antisense primer […], 0.5 μM sense primer […], 0.3 μM hybprobes […]-FL and LC640-[…]-PH (TIBMolBiol, Berlin) to a final volume of 12.5 μl. The PCR was performed on the Light Cycler 480 real time system (Roche Diagnostics, Mannheim) using the following protocol: Pre-incubation for 1 min at 95° C., amplification: 40 cycles×(10 sec at 95° C., 50 sec at 60° C., 1 sec at 70° C.), cooling for 10 sec at 40° C. Viral load was quantitated against known standards using HBV plasmid DNA of pCH-9/3091 (Nassal et al., 1990, Cell 63: 1357-1363) and the LightCycler 480 SW 1.5 software (Roche Diagnostics, Mannheim) and ECso values were calculated using non-linear regression with GraphPad Prism 6 (GraphPad Software Inc., La Jolla, USA).
# [2] = Cell viability assay (AlamarBlue); details: human, HepAD38 cells
# Protocol: Using the AlamarBlue viability assay cytotoxicity was evaluated in HepAD38 cells in the presence of 0.3 μg/ml tetracycline, which blocks the expression of the HBV genome. Assay condition and plate layout were in analogy to the anti-HBV assay, however other controls were used. On each assay plate six wells containing untreated HepAD38 cells were used as the 100% viability control, and six wells filled with assay medium only were used as 0% viability control. In addition, a geometric concentration series of cycloheximide starting at 60 μM final assay concentration was used as positive control in each experiment. After six days incubation period Alamar Blue Presto cell viability reagent (ThermoFisher, Dreieich) was added in 1/11 dilution to each well of the assay plate. After an incubation for 30 to 45 min at 37° C. the fluorescence signal, which is proportional to the number of living cells, was read using a Tecan Spectrafluor Plus plate reader with an excitation filter 550 nm and emission filter 595 nm, respectively. Data were normalized into percentages of the untreated control (100% viability) and assay medium (0% viability) before CC50 values were calculated using non-linear regression and the GraphPad Prism 6.0 (GraphPad Software, La Jolla, USA). Mean EC50 and CC50 values were used to calculate the selectivity index (SI=CC50/EC50) for each test compound.
# [3] = biological target: HBV core protein (C-terminal truncated core protein containing 149 amino acids of the N-terminal assembly domain) (UniProt P03146); experiment: Biochemical capsid assembly assay (fluorescence quenching); set-up: rows headed: Assembly Activity; other: BODIPY-FL labelled core protein, assembly started with NaCl, read after 6 min; details: read-out: Assembly Activity; BODIPY-FL labelled core protein, assembly started with NaCl, read after 6 min
# HBV core protein (C-terminal truncated core protein containing 149 amino acids of the N-terminal assembly domain), sequence (P03146 whole entry, the tested form may be a part): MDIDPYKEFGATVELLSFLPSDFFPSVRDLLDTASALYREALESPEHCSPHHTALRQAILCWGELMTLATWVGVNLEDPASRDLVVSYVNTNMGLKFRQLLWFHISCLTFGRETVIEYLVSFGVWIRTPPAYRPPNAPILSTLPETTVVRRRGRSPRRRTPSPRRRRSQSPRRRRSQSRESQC
# Protocol: The screening for assembly effector activity was done based on a fluorescence quenching assay published by Zotnick et al. (2007). The C-terminal truncated core protein containing 149 amino acids of the N-terminal assembly domain fused to a unique cysteine residue at position 150 and was expressed in E. coli using the pET expression system (Merck Chemicals, Darmstadt). Purification of core dimer protein was performed using a sequence of size exclusion chromatography steps. In brief, the cell pellet from 1 L BL21 (DE3) Rosetta2 culture expressing the coding sequence of core protein cloned NdeI/XhoI into expression plasmid pET21b was treated for 1 h on ice with a native lysis buffer (Qproteome Bacterial Protein Prep Kit; Qiagen, Hilden). After a centrifugation step the supernatant was precipitated during 2 h stirring on ice with 0.23 g/ml of solid ammonium sulfate. Following further centrifugation the resulting pellet was resolved in buffer A (100 mM Tris, pH 7.5; 100 mM NaCl; 2 mM DTT) and was subsequently loaded onto a buffer A equilibrated CaptoCore 700 column (GE HealthCare, Frankfurt). The column flow through containing the assembled HBV capsid was dialyzed against buffer N (50 mM NaHCO3 pH 9.6; 5 mM DTT) before urea was added to a final concentration of 3M to dissociate the capsid into core dimers for 1.5 h on ice. The protein solution was then loaded onto a IL Sephacryl S300 column. After elution with buffer N core dimer containing fractions were identified by SDS-PAGE and subsequently pooled and dialyzed against 50 mM HEPES pH 7.5; 5 mM DTT. To improve the assembly capacity of the purified core dimers a second round of assembly and disassembly starting with the addition of 5 M NaCl and including the size exclusion chromatography steps described above was performed. From the last chromatography step core dimer containing fractions were pooled and stored in aliquots at concentrations between 1.5 to 2.0 mg/ml at −80° C.
# Immediately before labelling the core protein was reduced by adding freshly prepared DTT in a final concentration of 20 mM. After 40 min incubation on ice storage buffer and DTT was removed using a Sephadex G-25 column (GE HealthCare, Frankfurt) and 50 mM HEPES, pH 7.5. For labelling 1.6 mg/ml core protein was incubated at 4° C. and darkness overnight with BODIPY-FL maleimide (Invitrogen, Karlsruhe) in a final concentration of 1 mM. After labelling the free dye was removed by an additional desalting step using a Sephadex G-25 column. Labelled core dimers were stored in aliquots at 4° C. In the dimeric state the fluorescence signal of the labelled core protein is high and is quenched during the assembly of the core dimers to high molecular capsid structures. The screening assay was performed in black 384 well microtiter plates in a total assay volume of 10 μl using 50 mM HEPES pH 7.5 and 1.0 to 2.0 μM labelled core protein. Each screening compound was added in 8 different concentrations using a 0.5 log-unit serial dilution starting at a final concentration of 100 μM, 31.6 μM or 10 μM, In any case the DMSO concentration over the entire microtiter plate was 0.5%. The assembly reaction was started by the injection of NaCl to a final concentration of […] which induces the assembly process to approximately 25% of the maximal quenched signal. 6 min after starting the reaction the fluorescence signal was measured using a Clariostar plate reader (BMG Labtech, Ortenberg) with an excitation of 477 nm and an emission of 525 nm. As 100% and 0% assembly control HEPES buffer containing 2.5 M and 0 M NaCl was used. Experiments were performed thrice in triplicates. EC50 values were calculated by non-linear regression analysis using the Graph Pad Prism 6 software (GraphPad Software, La Jolla, USA).
Compound,EC50 [1],CC50 at 6 days [2],IC50 [3]
"CN(CCO)S(=O)(=O)c1cnn2c1CN(C(=O)c1cc3ccccc3[nH]1)CC2 [Example 31, N-(2-hydroxyethyl)-5-(1H-indole-2-carbonyl)-N-methyl-4H,5H,6H,7H-pyrazolo[1,5-a]pyrazine-3-sulfonamide]",< 1 µM,> 10 µM,< 5 µM
"O=C(c1cc2ccccc2[nH]1)N1CCn2ncc(S(=O)(=O)NC3CCOC3)c2C1 (stereo not drawn) [Example 30, 5-(1H-indole-2-carbonyl)-N-(oxolan-3-yl)-4H,5H,6H,7H-pyrazolo[1,5-a]pyrazine-3-sulfonamide]",< 1 µM,> 10 µM,< 5 µM
"CCc1cccc2[nH]c(C(=O)N3CCn4ncc(C(=O)N(C)C5(CO)CC5)c4C3)cc12 [Example 95, 5-(4-ethyl-1H-indole-2-carbonyl)-N-[1-(hydroxymethyl)cyclopropyl]-N-methyl-4H,5H,6H,7H-pyrazolo[1,5-a]pyrazine-3-carboxamide]",< 1 µM,> 10 µM,< 5 µM
"COCC1(N(C)C(=O)c2cnn3c2CN(C(=O)c2cc4c(F)cc(F)cc4[nH]2)CC3)CC1 [Example 8, 5-(4,6-difluoro-1H-indole-2-carbonyl)-N-[1-(methoxymethyl)cyclopropyl]-N-methyl-4H,5H,6H,7H-pyrazolo[1,5-a]pyrazine-3-carboxamide]",< 1 µM,> 10 µM,< 5 µM
"O=C(c1cc2ccccc2[nH]1)N1CCn2ncc(C3CCC3)c2C1 [Example 6, 2-{3-cyclobutyl-4H,5H,6H,7H-pyrazolo[1,5-a]pyrazine-5-carbonyl}-1H-indole]",< 1 µM,> 10 µM,< 5 µM
"CC(COC(F)F)NC(=O)c1cnn2c1CN(C(=O)c1cc3ccccc3[nH]1)CC2 (stereo not drawn) [Example 89, N-[1-(difluoromethoxy)propan-2-yl]-5-(1H-indole-2-carbonyl)-4H,5H,6H,7H-pyrazolo[1,5-a]pyrazine-3-carboxamide]",< 1 µM,> 10 µM,< 5 µM
"CCc1cc(F)cc2[nH]c(C(=O)N3CCn4ncc(C(=O)N(C)C5(CO)CC5)c4C3)cc12 [Example 14, 5-(4-ethyl-6-fluoro-1H-indole-2-carbonyl)-N-[1-(hydroxymethyl)cyclopropyl]-N-methyl-4H,5H,6H,7H-pyrazolo[1,5-a]pyrazine-3-carboxamide]",< 1 µM,> 10 µM,< 5 µM
"O=C(c1cc2c(Cl)cccc2[nH]1)N1CCn2ncc(C(=O)N3CCCOCC34CC4)c2C1 [Example 110, 4-[5-(4-chloro-1H-indole-2-carbonyl)-4H,5H,6H,7H-pyrazolo[1,5-a]pyrazine-3-carbonyl]-8-oxa-4-azaspiro[2.6]nonane]",< 1 µM,> 10 µM,< 5 µM
"O=C(c1cc2cc(F)c(Cl)cc2[nH]1)N1CCn2ncc(C(=O)N3CCC(O)CC34CC4)c2C1 (stereo not drawn) [Example 117, 4-[5-(6-chloro-5-fluoro-1H-indole-2-carbonyl)-4H,5H,6H,7H-pyrazolo[1,5-a]pyrazine-3-carbonyl]-4-azaspiro[2.5]octan-7-ol]",< 1 µM,> 10 µM,< 5 µM
"CN(C(=O)c1cnn2c1CN(C(=O)c1cc3ccccc3[nH]1)CC2)C1(COCCCO)CC1 [Example 65, N-{1-[(3-hydroxypropoxy)methyl]cyclopropyl}-5-(1H-indole-2-carbonyl)-N-methyl-4H,5H,6H,7H-pyrazolo[1,5-a]pyrazine-3-carboxamide]",< 1 µM,> 10 µM,< 5 µM
"CN(C(=O)c1cnn2c1CN(C(=O)c1cc3c(F)ccc(F)c3[nH]1)CC2)C1(COC(F)F)CC1 [Example 24, 5-(4,7-difluoro-1H-indole-2-carbonyl)-N-{1-[(difluoromethoxy)methyl]cyclopropyl}-N-methyl-4H,5H,6H,7H-pyrazolo[1,5-a]pyrazine-3-carboxamide]",< 1 µM,> 10 µM,< 5 µM
"CCOCC1(N(C)C(=O)c2cnn3c2CN(C(=O)c2cc4ccccc4[nH]2)CC3)CC1 [Example 12, N-[1-(ethoxymethyl)cyclopropyl]-5-(1H-indole-2-carbonyl)-N-methyl-4H,5H,6H,7H-pyrazolo[1,5-a]pyrazine-3-carboxamide]",< 1 µM,> 10 µM,< 5 µM
"O=C(c1cc2ccccc2[nH]1)N1CCn2ncc(S(=O)(=O)N3CCC(F)(F)CC3)c2C1 [Example 34, 2-{3-[(4,4-difluoropiperidin-1-yl)sulfonyl]-4H,5H,6H,7H-pyrazolo[1,5-a]pyrazine-5-carbonyl}-1H-indole]",< 1 µM,> 10 µM,–
"O=C(c1cc2c(Cl)cccc2[nH]1)N1CCn2ncc(C(=O)N3CCC(F)(F)C3)c2C1 [Example 99, 4-chloro-2-[3-(3,3-difluoropyrrolidine-1-carbonyl)-4H,5H,6H,7H-pyrazolo[1,5-a]pyrazine-5-carbonyl]-1H-indole]",< 1 µM,> 10 µM,–
"O=C(c1cc2c(Cl)cc(F)cc2[nH]1)N1CCn2ncc(C(=O)N3CCC(F)(F)C3)c2C1 [Example 140, 4-chloro-2-[3-(3,3-difluoropyrrolidine-1-carbonyl)-4H,5H,6H,7H-pyrazolo[1,5-a]pyrazine-5-carbonyl]-6-fluoro-1H-indole]",< 1 µM,> 10 µM,–
